US10513534B2, “2′-chloro nucleoside analogs for HCV infection” (priority 2012, dated 2019)
Read-outs that look alike come from different tables or passages of the source.

Legend:
HCV genotype 1b replicon = experiment: HCV replicon assay (Zluc luciferase); format: cell-based; conditions: read-out: HCV Replicon EC50
Method in brief: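 Zluc Huh-7 cells with HCV genotype 1b replicon and luciferase reporter treated with 5-fold dilutions (100 μM to 0.0000512 μM final) in duplicate, or at 1 and 10 μM. Luminescence read with ONE-glo; EC50 from dose-response fits, or % inhibition at the fixed concentrations.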

[1] = Cytotoxicity evaluation, CellTiter-Blue Cell Viability Assay; conditions: human
fresh human hepatocytes = experiment: Release of active metabolite in fresh human hepatocytes; format: in vitro ADME; parameters: key to FHH TP (6 hr): + ≤ 15; 15 < ++ ≤ 50; 50 < +++ ≤ 100; 100 < ++++; BLD = below limit of detection; conditions: 10 μM
Method: (§1) Plates of fresh human and mouse hepatocytes were obtained on ice. The medium was removed and replaced with hepatocyte culture medium (William's E supplemented with penicillin-streptomycin, 1% L-glutamine, 1% insulin-transferrin-selenium and 0.1 μM Dexamethasone (Invitrogen) or with Invitro GRO HI medium complemented with Torpedo antibiotics (Celsis)). Cells were left overnight in an incubator at 37° C. to acclimatize to culture and the medium.
(§2) Hepatocyte incubations were conducted at a final volume of 0.5 mL hepatocyte culture medium/well (0.8 million cells/well for human and 0.5 million cells/well for mouse; 12 well plate no overlay, collagen coat). Culture medium from overnight incubation of cells was removed and replaced with fresh medium, pre-warmed to 37° C., containing 10 μM of test compound from a stock solution in DMSO (final DMSO concentration was 0.1%). At each specific time point, incubation medium was removed and cell monolayers were carefully washed two times with ice-cold PBS. Following the last wash, all PBS was carefully removed and 1.0 mL of extraction solution (ice-cold 70% methanol/30% water) added. Cells were scraped off and suspended in the extraction solution, transferred to 2 mL polypropylene microfuge tubes and intracellular contents extracted overnight at −20° C.
(§3) After the overnight treatment the cellular extracts were prepared by centrifugation at 16,000×g for 10 min to remove cellular debris. The remaining sample was then dried using a refrigerated centrivap concentrator. Dry extracts were reconstituted in 1000 μL of HPLC-grade water and centrifuged at 16,000×g for 10 min. Aliquots (100 μL each) of the supernatant were transferred into a 96 well plate and internal standard (4 ng/mL final concentration) was added as the internal standard (IS) for LC-MS/MS analysis.
(§4) The incubation time points were 6, 24 and 48 hours for human hepatocytes and 1, 4, 8, 12 and 24 hours for mouse hepatocytes.

fresh mouse hepatocytes = experiment: Release of active metabolite in fresh mouse hepatocytes; format: in vitro ADME; conditions: 10 μM
Method: as §1, §2, §3, §4

[2] = Stability in simulated intestinal fluid; format: in vitro ADME; conditions: simulated intestinal fluid with pancreatin, 100 μM, 2 hours, 37° C.
Method: (§5) Stability in Simulated Gastric and Intestinal Fluids: Simulated gastric and intestinal fluids containing pepsin and pancreatin respectively were prepared according to the U.S. Pharmacopoeia USP291 procedure(www.pharmacopeia.cn/v29240/usp29nf24s0_ris1s126.html). Each test compound (final concentration 100 μM) was incubated in duplicate in the appropriate fluid for 2 hours at 37° C. The samples were quenched with […] cold acetonitrile, vortexed for 30 seconds and then centrifuged at 16100×g for 10 min. The supernatants were analyzed by HPLC on a C-18 column with UV detection at 252 nm. The time zero samples were prepared by adding SGF or SIF fluid to the quenching solvent followed by the test compound. Stability of the compound was determined by peak area of the test compound after incubation and calculated as percent of the peak area observed at time zero.

Zluc cells = experiment: Cytotoxicity evaluation, CellTiter-Blue Cell Viability Assay; conditions: Zluc cells, CellTiter-Blue
[3] = Plasma prodrug and nucleoside pharmacokinetics after single oral dose in cynomolgus monkeys; format: in vivo; conditions: single oral 10 mg/kg
Method: (§6) For each compound, a single oral dose at 10 mg/kg in PEG 200 (dose volume 3 mL/kg) was administered to cynomolgus monkeys. Untreated animals were used for the collection of control liver. Plasma samples were collected at 0.5, 1, 2, 4, 6, 8, 12 and 24 hours for compound 37, diastereomer 2.
Plasma samples were analyzed for the prodrug and nucleoside by LC-MS/MS. For protein precipitation and extraction, each plasma sample (50 μL) was treated with 500 μL of 0.2% formic acid in acetonitrile and 20 μL of an appropriate internal standard working solution. After vortexing and centrifugation, 500 µL of the sample extracts were transferred to a new plate, dried under N2 at ˜28° C. and reconstituted with 75 μL of 0.2% FA in water. The extracts were chromatographed on an Aquasil C18 column using a gradient system of 0.2% formic acid in water and acetonitrile. The analytes were detected and quantified by tandem mass spectrometry in positive ion mode on an MDS Sciex API4000 equipped with a Turbo Ionspray® interface.

[4] = Stability in simulated gastric fluid; format: in vitro ADME; conditions: simulated gastric fluid with pepsin, 100 μM, 2 hours, 37° C.
Method: as §5

[5] = Plasma nucleoside pharmacokinetics after single oral dose in CD-1 mice; format: in vivo; conditions: single oral dose 10 mg/kg in PEG 200;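 as to Ms Plasma nucleoside AUC: pmol·h/mL plasma normalized to a 1 µmol/kg dose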
Method in brief: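 Mouse plasma was extracted by acetonitrile/0.2% formic acid protein precipitation using 2′-MeG-D3 or tiapride as internal standard. Nucleoside was quantified by positive-ion LC-MS/MS after C18 gradient separation. Calibration spanned 0.500 (LLOQ) to 200 ng/mL.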

[6] = Liver triphosphate pharmacokinetics after single oral dose in cynomolgus monkeys; format: in vivo; conditions: for Nucleoside triphosphate in Liver C6: 6 hours post dose, 10 mg/kg oral; for Nucleoside triphosphate in Liver C6 / Nucleoside triphosphate in Liver AUC0-24 / Nucleoside triphosphate in Liver Cmax: normalized to 1 μmol/kg dose
Method: as §6
Liver samples were analyzed for the relevant nucleoside triphosphate by LC-MS/MS. […] Appropriate internal standard solution was added to the homogenate followed by neutralization with 20% ammonium hydroxide solution and addition of 500 μL 1% formic acid. The tissue samples were extracted by weak anion exchange solid phase extraction (SPE). Post extraction, the eluates were evaporated under nitrogen, followed by reconstitution before injection onto the LC-MS/MS system.

[7] = Stability in intestinal microsomes; format: in vitro ADME; conditions: human intestinal microsomes 1.0 mg/mL, 10 μM, NADPH, 60 min
Method: (§7) Stability of test compounds were determined in human liver and intestinal microsomes in duplicate for each matrix. Pooled liver and intestinal microsomal proteins (1.0 mg/mL), suspended in incubation buffer (100 mM potassium phosphate, pH 7.4, 5 mM MgCl2, and 0.1 mM EDTA), were preincubated for 5 min at 37° C. with 10 μM of a test compound from a 10 mM stock solution in DMSO (final DMSO concentration was 0.1%); the reaction was initiated by the addition of NADPH (3 mM final concentration). At specific times (0 and 60 min), 0.1 mL samples were taken and the reaction terminated by the addition of 4 volumes of stop solution (acetonitrile with 500 ng/mL carbutamide as an internal standard). The samples were vortexed for 30 sec and then centrifuged at 16000×g for 10 min. 100 μL of supernatants were transferred to 96 deep-well plates preloaded with 100 μL distilled water and analyzed after mixing by LC-MS/MS. The MS peak area ratio of the test compound versus the internal standard was calculated and percent unchanged test compound over 60 minutes was calculated using this ratio.

[8] = Stability in liver microsomes; format: in vitro ADME; conditions: human liver microsomes 1.0 mg/mL, 10 μM, NADPH, 60 min
Method: as §7

[9] = Liver triphosphate pharmacokinetics after single oral dose in CD-1 mice; format: in vivo; conditions: single oral dose 10 mg/kg in PEG 200;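 as to Ms Liver TP AUC: pmol·h/g liver normalized to a 1 µmol/kg dose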;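 as to Ms Liver TP Cmax: pmol/g liver normalized to a 1 µmol/kg dose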
Method: Internal standard solution was added to the homogenate followed by neutralization with 20% ammonium hydroxide solution and addition of 500 μL 1% formic acid. The tissue samples were extracted by weak anion exchange solid phase extraction (SPE). Post extraction, the eluates were evaporated under nitrogen, followed by reconstitution before injection onto the LC-MS/MS system.

Row | Structure (SMILES) | EC50 (HCV genotype 1b replicon; Hepatitis C virus, 72 h) [µM] | CC50 [1] [µM] | EC50 (HCV genotype 1b replicon; Zluc cells, 72 hours) [µM] | MsH AUC (fresh mouse hepatocytes) | MsH Cmax (fresh mouse hepatocytes) | CC50 (Zluc cells) [µM] | Ms Plasma nucleoside Cmax [5] | Nucleoside triphosphate in Liver C6 [6] | Nucleoside triphosphate in Liver AUC0-24 ([6]; single oral 10 mg/kg) | Nucleoside triphosphate in Liver Cmax ([6]; single oral 10 mg/kg) | HIM (1 hr) stability (percent remaining) [7] | HLM (1 hr) stability (percent remaining) [8] | Ms Plasma nucleoside AUC [5] | further results
1 | CCOC(=O)COP(=O)(OC[C@H]1O[C@@H](n2ccc(=O)[nH]c2=O)[C@](C)(Cl)[C@@H]1O)Oc1ccccc1 (mixture of isomers) [Compound 72 Mixture of P-Diastereoisomers] | > 10 | > 50 | – | – | – | – | – | – | – | – | – | – | – | –
2 | CC(C)OP1(=O)OC[C@H]2O[C@@H](n3ccc(=O)[nH]c3=O)[C@](C)(Cl)[C@@H]2O1 (single isomer, unassigned) [Compound 37 Diastereomer 2] | – | – | 1 to 10 | ++++ (1500 < ++++) | ++++ (100 < ++++) | > 50 | +++ (50 < +++ ≤ 100) | ++++ (100 < ++++) | ++++ (1500 < ++++) | ++++ (100 < ++++) | – | – | – | FHH TP AUC (fresh human hepatocytes): +++ (500 < +++ ≤ 1500); FHH TP Cmax (fresh human hepatocytes): ++ (15 < ++ ≤ 50); FHH TP (6 hr) (fresh human hepatocytes; 6 hr): BLD^b; FHH TP (24 hr) (fresh human hepatocytes; 24 hr): ++ (15 < ++ ≤ 50); FHH TP (48 hr) (fresh human hepatocytes; 48 hr): ++ (15 < ++ ≤ 50); SIF stability (percent remaining) [2]: ++++ (75% < ++++); Tmax ([3]; cynomolgus monkey, plasma): 4 h; AUC(0-t) ([3]; cynomolgus monkey, plasma, normalized to 1 μmol/kg dose, read-out: Plasma prodrug AUC0-24): > 1.5 µM·h; Cmax ([3]; cynomolgus monkey, plasma, normalized to 1 μmol/kg dose, read-out: Plasma prodrug Cmax): > 100 nM; SGF stability (percent remaining) [4]: ++++ (75% < ++++)
3 | CCOC(=O)COP(=O)(OC[C@H]1O[C@@H](n2ccc(=O)[nH]c2=O)[C@](C)(Cl)[C@@H]1O)Oc1ccccc1 (single isomer, unassigned) [Compound 72 Diastereomer 1] | > 10 | > 50 | – | – | – | – | – | – | – | – | – | – | – | –
4 | CC(C)OC(=O)[C@@H](C)NP(=O)(OC[C@H]1O[C@@H](n2ccc(=O)[nH]c2=O)[C@](C)(Cl)[C@@H]1O)Oc1ccccc1 (single isomer, unassigned; diastereomer 1) [Compound 40i Diastereomer 1] | – | – | > 10 | ++++ (1500 < ++++) | ++++ (100 < ++++) | > 50 | +++ (50 < +++ ≤ 100) | ++++ (100 < ++++) | ++++ (1500 < ++++) | ++++ (100 < ++++) | +++ (50% < +++ ≤ 75%) | + (+ ≤ 25%) | +++ (500 < +++ ≤ 1500) | Plasma nucleoside Tmax [3]: 6 h; Plasma prodrug Tmax [3]: 2 h; Plasma nucleoside AUC0-24 ([3]; normalized to 1 μmol/kg dose): ++ (150 < ++ ≤ 500); Plasma prodrug AUC0-24 ([3]; normalized to 1 μmol/kg dose): + (+ ≤ 150); Cmax ([3]; normalized to 1 μmol/kg dose, read-out: Plasma nucleoside Cmax): 15 to 50 nM; Cmax ([3]; normalized to 1 μmol/kg dose, read-out: Plasma prodrug Cmax): ≤ 15 nM; Nucleoside triphosphate in Liver Tmax ([6]; single oral 10 mg/kg): 6 h
5 | CC(C)OC(=O)[C@@H](C)NP(=O)(OC[C@H]1O[C@@H](n2ccc(=O)[nH]c2=O)[C@](C)(Cl)[C@@H]1O)Oc1ccccc1 (single isomer, unassigned; diastereomer 2) [Compound 40i Diastereomer 2] | – | – | – | +++ (500 < +++ ≤ 1500) | +++ (50 < +++ ≤ 100) | – | +++ (50 < +++ ≤ 100) | – | – | – | ++++ (75% < ++++) | +++ (50% < +++ ≤ 75%) | +++ (500 < +++ ≤ 1500) | Ms Liver TP AUC [9]: ++++ (1500 < ++++); Ms Liver TP Cmax [9]: ++++ (100 < ++++)
